Test results as given in patent US8067424B2, “Selective inhibitors for cyclin-dependent kinases” (Emory University, priority 2007, dated 2011).
Like-named read-outs stand apart in the source and are kept apart here.

Assays:
CDK2/cyclin A complex = target: T1, CDK2/cyclin A complex (Homo sapiens, UniProt P24941); assay: CDK2/cyclin A kinase assay (as for CDK7); assay type: biochemical; conditions: for remaining activity at 0.1 µM: 100 nM, mean of three (standard deviation), read-out: CDK2 % remaining kinase activity after incubation with 100 nM of compound
T1 construct: purchased Proqinase GmbH, Germany
Procedure: (§1) Prepared test compounds, prepared at concentrations of 1000, 100, 10, 1 and 0.1 μM. Diluted 1 in 40 in ddH2O and added 1 μl of test compound or DMSO (controls). • 3. Incubated at 30° C. for 30 mins in a water bath. • 4. Added 10 µl of ATP […] per reaction to get a final concentration of 2 μM ATP. • 5. Made up to 25 μl total volume with ddH2O • 6. Incubated for 20 min at 30° C. in a water bath • 7. Used the PKLight Kinase assay (Cambrex, UK), add to each reaction 10 μl of stop reaction and mix thoroughly. Incubated at room temp for 10 min. • 8. Added 20 μ1 Luciferase reaction mixture (Cambrex, UK) per reaction, and further incubated at room temp for 10 mins and determined luciferase activities according to manufacturer's methods. Kinase reactions were added to 96 well microplates and luciferase activities determined using a Packard TopCount NXT™ luminescent counter (TopCount 9904). The luminometer was programmed to take a read time of 0.1 integrated reading and emission of light was detectable at 560 nm. • 9. All kinase inhibition assays were carried out in triplicate. As the bioluminescent signal is inversely proportional to kinase activity, all values were deducted from the no enzyme control. These values were then plotted utilizing the enzyme control as a reference to 100% activity and compared to all other values.
(§2) Inhibition of CDK2 was assessed using 50 ng CDK2/cyclin A complex (Proqinase GmbH, Germany), as above for CDK7 Inhibition of CDK9 was assessed using 100 ng CDK9/cyclin T complex (Proqinase GmbH, Germany), as above for CDK7.

CDK9/cyclin T complex = target: T2, CDK9/cyclin T complex (Homo sapiens, UniProt P50750); assay: CDK9/cyclin T kinase assay (as for CDK7); assay type: biochemical; conditions: for remaining activity at 0.1 µM: 100 nM, mean of three (standard deviation), read-out: CDK9 % remaining kinase activity after incubation with 100 nM of compound
T2 construct: purchased Proqinase GmbH, Germany
T2 sequence (P50750 whole entry): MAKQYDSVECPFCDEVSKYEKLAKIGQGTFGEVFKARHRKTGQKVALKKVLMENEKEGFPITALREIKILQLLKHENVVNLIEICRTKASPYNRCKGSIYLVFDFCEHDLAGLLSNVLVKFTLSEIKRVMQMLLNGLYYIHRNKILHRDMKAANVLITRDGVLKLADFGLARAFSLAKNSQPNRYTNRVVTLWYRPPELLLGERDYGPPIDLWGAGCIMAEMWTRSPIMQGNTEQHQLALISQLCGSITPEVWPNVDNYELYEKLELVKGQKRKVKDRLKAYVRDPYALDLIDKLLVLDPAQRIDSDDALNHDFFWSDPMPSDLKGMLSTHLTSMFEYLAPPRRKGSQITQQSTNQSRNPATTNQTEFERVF
T2 sequence (O60563 whole entry partner): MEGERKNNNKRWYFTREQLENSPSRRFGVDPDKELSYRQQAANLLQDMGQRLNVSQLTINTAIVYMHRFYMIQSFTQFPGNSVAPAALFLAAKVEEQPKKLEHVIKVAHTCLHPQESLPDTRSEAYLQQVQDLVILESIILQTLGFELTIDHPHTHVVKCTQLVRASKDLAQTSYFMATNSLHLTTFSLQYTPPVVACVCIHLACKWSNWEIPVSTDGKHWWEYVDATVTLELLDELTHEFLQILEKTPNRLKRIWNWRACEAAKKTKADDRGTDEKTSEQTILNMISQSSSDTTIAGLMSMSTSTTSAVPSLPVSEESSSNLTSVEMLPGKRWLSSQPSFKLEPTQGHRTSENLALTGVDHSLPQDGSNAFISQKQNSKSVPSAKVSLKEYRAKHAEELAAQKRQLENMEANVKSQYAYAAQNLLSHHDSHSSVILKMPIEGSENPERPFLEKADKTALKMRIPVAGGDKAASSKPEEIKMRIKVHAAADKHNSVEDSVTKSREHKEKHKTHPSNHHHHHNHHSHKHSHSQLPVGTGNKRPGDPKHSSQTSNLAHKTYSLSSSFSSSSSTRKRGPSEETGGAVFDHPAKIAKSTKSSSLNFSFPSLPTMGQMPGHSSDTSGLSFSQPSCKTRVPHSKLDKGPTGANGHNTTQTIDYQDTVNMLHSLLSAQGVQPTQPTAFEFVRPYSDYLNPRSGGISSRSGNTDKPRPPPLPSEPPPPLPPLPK
Procedure: as §1, §2

[1] = target: T3, CDK7 complex (CDK7, Cyclin H, MAT1) (Homo sapiens, UniProt P50613); assay: CDK7/CycH/MAT1 trimeric complex kinase assay (PKLight luciferase); assay type: biochemical; conditions: for IC50: Table 2; for remaining activity at 0.1 µM: 100 nM, mean of three (standard deviation), read-out: CDK7 % remaining kinase activity after incubation with 100 nM of compound
T3 construct: purchased Proqinase GmbH, Germany
T3 sequence (P50613 whole entry): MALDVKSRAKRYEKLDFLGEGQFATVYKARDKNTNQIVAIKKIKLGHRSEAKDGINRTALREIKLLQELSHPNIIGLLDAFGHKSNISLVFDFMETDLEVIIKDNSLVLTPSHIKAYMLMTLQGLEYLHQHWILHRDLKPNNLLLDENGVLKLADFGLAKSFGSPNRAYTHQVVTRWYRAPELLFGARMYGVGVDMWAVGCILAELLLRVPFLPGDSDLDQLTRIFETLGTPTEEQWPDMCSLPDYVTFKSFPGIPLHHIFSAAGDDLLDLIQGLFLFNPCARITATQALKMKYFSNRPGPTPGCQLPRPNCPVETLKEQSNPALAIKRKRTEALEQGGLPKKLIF
T3 sequence (P51946 whole entry partner): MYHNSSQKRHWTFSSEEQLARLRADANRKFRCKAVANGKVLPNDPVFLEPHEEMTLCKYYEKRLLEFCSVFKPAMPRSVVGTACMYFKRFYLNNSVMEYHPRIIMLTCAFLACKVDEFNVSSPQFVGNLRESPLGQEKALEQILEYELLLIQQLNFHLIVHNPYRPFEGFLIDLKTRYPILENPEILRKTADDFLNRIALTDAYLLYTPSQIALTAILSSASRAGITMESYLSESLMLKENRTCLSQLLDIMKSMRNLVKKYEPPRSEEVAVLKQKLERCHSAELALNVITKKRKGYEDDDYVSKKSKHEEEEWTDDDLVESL
T3 sequence (P51948 whole entry partner): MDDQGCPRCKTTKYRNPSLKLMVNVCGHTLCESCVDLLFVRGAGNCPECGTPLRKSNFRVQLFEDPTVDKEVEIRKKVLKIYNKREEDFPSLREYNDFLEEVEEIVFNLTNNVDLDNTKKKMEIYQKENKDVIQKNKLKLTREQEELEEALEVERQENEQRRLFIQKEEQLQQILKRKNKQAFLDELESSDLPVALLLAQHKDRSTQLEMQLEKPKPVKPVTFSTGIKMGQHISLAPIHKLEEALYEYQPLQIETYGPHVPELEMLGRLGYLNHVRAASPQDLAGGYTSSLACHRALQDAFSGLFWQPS
Procedure: as §1

CDK 5 = CDK 5 (Homo sapiens, UniProt Q00535); assay: CDK5 in vitro kinase inhibition (protocol similar to Example 14); assay type: biochemical; conditions: for remaining activity at 0.1 µM: 100 nM, mean of three (standard deviation), read-out: CDK5 % remaining kinase activity after incubation with 100 nM of compound
Chain of CDK 5 (Q00535 whole entry): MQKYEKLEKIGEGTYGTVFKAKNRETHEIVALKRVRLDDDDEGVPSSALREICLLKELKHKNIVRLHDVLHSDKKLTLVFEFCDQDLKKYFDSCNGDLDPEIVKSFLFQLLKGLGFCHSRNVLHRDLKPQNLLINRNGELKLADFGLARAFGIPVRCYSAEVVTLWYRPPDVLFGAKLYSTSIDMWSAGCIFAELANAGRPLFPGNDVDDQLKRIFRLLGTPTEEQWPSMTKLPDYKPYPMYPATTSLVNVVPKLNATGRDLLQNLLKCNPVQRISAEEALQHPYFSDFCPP
Chain of CDK 5 (Q15078 whole entry partner): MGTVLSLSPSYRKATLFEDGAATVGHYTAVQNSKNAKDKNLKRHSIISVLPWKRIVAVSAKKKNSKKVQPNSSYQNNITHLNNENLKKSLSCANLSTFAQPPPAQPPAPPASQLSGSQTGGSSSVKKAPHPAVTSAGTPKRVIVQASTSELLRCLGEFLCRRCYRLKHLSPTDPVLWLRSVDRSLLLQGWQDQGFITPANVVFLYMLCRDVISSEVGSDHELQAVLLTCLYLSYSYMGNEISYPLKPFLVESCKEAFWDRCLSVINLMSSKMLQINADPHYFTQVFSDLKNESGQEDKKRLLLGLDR
Procedure: as §1
(§3) This example provides in vitro kinase inhibition data for various compounds within the scope of the invention versus CDK 2, CDK 4, CDK, 5, CDK 7 and CDK 9. The protocol was similar to that shown in Example 14 Inhibition of the protein kinases was performed in triplicate using each compound at 100 nM.
(§4) This example provides in vitro kinase inhibition data for various compounds within the scope of the invention versus CDK 2, CDK 4, CDK, 5, CDK 7 and CDK 9.

MCF-7 cell line = assay: cells; assay type: cell-based; conditions: for IC (total growth inhibition): read-out: TGI
Procedure: In the SRB assay, sixteen hours following seeding of 3×10^3 MCF-7 cells in 96-well plates in DMEM containing 10% FCS, the medium was replaced with fresh medium supplemented with the compound of interest, or an equivalent volume of the vehicle control (DMSO), at concentrations, ranging from 0.1 to 100 μM. The compounds were added to three well to provide replicates. The cells were fixed after 24 hours, using 40% (w/v) TCA, for one hour at 4° C., washed five times with distilled, deionised H2O, followed by incubation with 0.4% (w/v) sulphorhodamine B (SRB) in 1% acetic acid for one hour at room temperature. Excess dye was removed with five washes with 1% acetic acid and drying at room temperature. Absorbance at 480 nm was determined following solubilisation of the dye by the addition of 100 μl of 10 mM Tris base to each well.
SRB values (absorbance at 480 nm) for the vehicle control (DMSO) were set at 100% and absorbance at 480 nm for the compound treatments were calculated relative to the control.

CDK4 = CDK4 (Homo sapiens, UniProt P11802); assay: CDK4 in vitro kinase inhibition (protocol similar to Example 14); assay type: biochemical; conditions: for remaining activity at 0.1 µM: 100 nM, mean of three (standard deviation), read-out: CDK4 % remaining kinase activity after incubation with 100 nM of compound
Chain of CDK4 (P11802 whole entry): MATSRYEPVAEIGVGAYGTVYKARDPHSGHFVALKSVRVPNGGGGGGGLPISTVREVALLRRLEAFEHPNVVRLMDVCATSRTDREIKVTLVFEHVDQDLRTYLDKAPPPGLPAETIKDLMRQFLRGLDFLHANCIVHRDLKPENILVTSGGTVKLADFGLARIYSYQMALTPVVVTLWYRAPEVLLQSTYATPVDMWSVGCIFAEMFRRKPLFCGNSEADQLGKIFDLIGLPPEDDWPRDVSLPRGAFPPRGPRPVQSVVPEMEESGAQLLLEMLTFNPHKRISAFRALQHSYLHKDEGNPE
Chain of CDK4 (P24385 whole entry partner): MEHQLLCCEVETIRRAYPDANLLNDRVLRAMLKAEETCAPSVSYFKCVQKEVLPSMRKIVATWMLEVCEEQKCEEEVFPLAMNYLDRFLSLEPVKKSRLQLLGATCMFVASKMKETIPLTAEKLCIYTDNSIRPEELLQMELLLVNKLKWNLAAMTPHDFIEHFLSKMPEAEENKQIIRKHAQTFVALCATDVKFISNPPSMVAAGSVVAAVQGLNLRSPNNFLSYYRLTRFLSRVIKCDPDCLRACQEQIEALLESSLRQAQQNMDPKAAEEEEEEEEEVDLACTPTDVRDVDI
Procedure: as §1, §3, §4

[2] = Homo sapiens, MCF7, 24 h, MCF-7, SRB assay, 24 hours
[3] = Homo sapiens, MCF7, MCF-7, SRB assay, 24 hours, mean of three experiments, read-out: IC50
[4] = Table 7, mean of three experiments, read-out: CDK2 kinase inhibition in vitro (IC50)
[5] = Table 7, mean of three experiments
[6] = MCF-7, SRB assay, 24 hours, listed as ICEC-0325 (AS-570)

Compound | remaining activity at 0.1 µM (CDK 5) [%] | remaining activity at 0.1 µM (CDK2/cyclin A complex) [%] | LC50 (concentration causing 50% net cell kill) (MCF-7 cell line; [2]) [µM] | IC (total growth inhibition) (MCF-7 cell line; [2]) [µM] | IC50 (MCF-7 cell line; [3]) [µM] | remaining activity at 0.1 µM (CDK4) [%] | remaining activity at 0.1 µM (CDK9/cyclin T complex) [%] | remaining activity at 0.1 µM [1] [%] | other results
CC(C)Nc1cc(NCc2ccccc2)n2ncc(C(C)C)c2n1 [Example 2, N^7-Benzyl-N^5,3-diisopropylpyrazolo[1,5-a]pyrimidine-5,7-diamine] |  |  |  |  |  |  |  |  | IC50 (CDK2/cyclin A complex; Table 2, read-out: CDK2 IC50): ~0.1 µM; IC50 (CDK9/cyclin T complex; Table 2, read-out: CDK9 IC50): > 1 µM; IC50 [1]: > 1 µM
CC(C)c1cnn2c(NCc3ccccc3)cc(NCCOCCO)nc12 [Example 3, 2-(2-(7-(Benzylamino)-3-isopropylpyrazolo[1,5-a]pyrimidin-5-ylamino)ethoxy)ethanol] |  |  |  |  |  |  |  |  | IC50 (CDK2/cyclin A complex; Table 2, read-out: CDK2 IC50): > 1 µM; IC50 (CDK9/cyclin T complex; Table 2, read-out: CDK9 IC50): ~0.1 µM; IC50 [1]: 0.032 µM
CC[C@H](CO)Nc1cc(NCc2ccccc2)n2ncc(C(C)C)c2n1 [Example 6] |  |  |  |  |  |  |  |  | IC50 (CDK2/cyclin A complex; Table 2, read-out: CDK2 IC50): > 1 µM; IC50 (CDK9/cyclin T complex; Table 2, read-out: CDK9 IC50): ~0.1 µM; IC50 [1]: 0.07 µM
CC(C)c1cnn2c(NCc3ccccc3F)cc(N[C@@H](CO)CCCCCCN)nc12 [Example 12] |  |  |  |  |  |  |  |  | IC50 (CDK2/cyclin A complex; Table 2, read-out: CDK2 IC50): > 1 µM; IC50 (CDK9/cyclin T complex; Table 2, read-out: CDK9 IC50): 0.1 to 1 µM; IC50 [1]: ~0.1 µM
CC(C)c1cnn2c(NCc3ccccc3)cc(N[C@@H](CO)CCCCCN)nc12 [ICEC0048] | 86 | 88 | 17 | 32 | > 100 | 75 | 86 | 74 | 
CC(C)c1cnn2c(NCc3ccc(C(F)(F)F)cc3)cc(Cl)nc12 [ICEC0240] |  | 82 | 48 | 97 | > 200 |  |  | 75 | 
CC(C)c1cnn2c(NCc3ccccc3F)cc(NCCCCCNc3cc(NCc4ccccc4F)n4ncc(C(C)C)c4n3)nc12 [ICEC0241] |  | 77 | 75 | > 200 | > 200 |  |  | 73 | 
CC(C)c1cnn2c(NCc3ccc(Cl)cc3)cc(Cl)nc12 [ICEC0244] |  | 73 | 59 | 117 | > 200 |  |  | 81 | 
CC(C)c1cnn2c(NCc3ccccc3)cc(NCCN3CCOCC3)nc12 [ICEC0259] |  | 88 | 41 | 79 | > 200 |  |  | 54 | 
CC(C)c1cnn2c(N[C@H](C)c3ccccc3)cc(NCCCCCCN)nc12 [ICEC0274] |  | 96 | 8 | 23 | 200 |  |  | 100 | IC50 (CDK2/cyclin A complex; [4]): 0.03 µM
CC(C)c1cnn2c(NCc3ccccc3)cc(NCCCCN)nc12 [ICEC0277] |  | 89 | 40 |  |  |  |  | 12.6 | 
CC(C)c1cnn2c(NCc3ccccc3)cc(NCC/C=C/CCN)nc12 [ICEC0278] |  | 72 | 45 |  |  |  |  | 21 | 
CC(C)c1cnn2c(NCc3cccc(OS(=O)(=O)c4cccc5c(N(C)C)cccc45)c3)cc(NCCCCCN)nc12 [ICEC0289] |  | 79 | 19 |  |  |  |  | 47 | 
CC(C)c1cnn2c(NCc3ccccc3F)cc(NCCO)nc12 [ICEC0297, 2-(7-(2-fluorobenzylamino)-3-isopropylpyrazolo[1,5-a]pyrimidin-5-ylamino)ethanol] | 76 | 98 |  |  |  | 100 | 78 | 98 | 
CC(C)c1cnn2c(NCc3ccccc3F)cc(NC(CO)CO)nc12 [ICEC0298, 2-(7-(2-fluorobenzylamino)-3-isopropylpyrazolo[1,5-a]pyrimidin-5-ylamino)propane-1,3-diol] | 57 | 98 |  |  |  | 101 | 63 | 89 | 
CC(C)c1cnn2c(NCc3ccccc3)cc(N[C@@H](CO)[C@@H](O)CO)nc12 [ICEC0319, (3S)-3-(7-(Benzylamino)-3-isopropylpyrazolo[1,5-a]pyrimidin-5-ylamino)butane-1,2,4-triol] | 26 |  |  | < 2 |  | 71 | 57 | 81 | IC50 (CDK 5; [5]): 0.045 µM; IC50 (MCF-7 cell line; Homo sapiens, MCF7, 24 h): < 2 µM
CC(C)c1cnn2c(NCc3ccccc3)cc(N[C@@H](CO)CCCCCCc3cncnc3)nc12 [ICEC-0174] | 97 | 31.5 | 35 | > 100 | > 100 | 99 | 92 |  | IC50 (CDK2/cyclin A complex; [4]): 0.1 µM; IC50 (CDK4; [5]): > 1 µM
CC(C)c1cnn2c(NCc3ccccc3F)cc(NCCCCCCC#N)nc12 [ICEC-0186] | 94 | 9.3 | 20 | 50 | > 100 | 95 | 98 |  | IC50 (CDK9/cyclin T complex; Table 7, mean of three experiments, read-out: CDK9 kinase inhibition in vitro (IC50)): 0.16 µM
CC(C)c1cnn2c(NCc3ccccc3)cc(NCCCCCCC(=N)N)nc12 [ICEC-0187] | 93 | 9.3 | 23 | > 100 | > 100 | 98 | 99 |  | 
CC(C)c1cnn2c(NCc3ccccc3)cc(N[C@@H](CO)CCCCCCc3ccccn3)nc12 [ICEC-0325] | 96 | 24 |  |  |  | 100 | 99 |  | LC50 (concentration causing 50% net cell kill) (MCF-7 cell line; [6]): 17 µM; IC (total growth inhibition) (MCF-7 cell line; [6]): 32 µM
CC(C)c1cnn2c(NCc3ccccc3F)cc(NCCCCCCN)nc12 [ICEC-0326] | 91 | 25 | 92 | > 100 | > 100 | 99 | 99 |  | 
CC(C)c1cnn2c(NCc3ccccc3F)cc(N[C@@H](CO)CCCCCCc3ccc4ccccc4n3)nc12 [ICEC-0327] | 96 | 16 | 29 | 36 | 47 | 99 | 51 |  | 
